Test results from patent US8372865B2, “Dihydropyridone amides as P2X7 modulators” (Roche Palo Alto LLC, priority 2008, dated 2013).

These compounds were tested against T1, P2X7 receptor (UniProt Q99572) (assay: pKi of Table 1 (assay not stated)).
T1 sequence (Q99572 1-595): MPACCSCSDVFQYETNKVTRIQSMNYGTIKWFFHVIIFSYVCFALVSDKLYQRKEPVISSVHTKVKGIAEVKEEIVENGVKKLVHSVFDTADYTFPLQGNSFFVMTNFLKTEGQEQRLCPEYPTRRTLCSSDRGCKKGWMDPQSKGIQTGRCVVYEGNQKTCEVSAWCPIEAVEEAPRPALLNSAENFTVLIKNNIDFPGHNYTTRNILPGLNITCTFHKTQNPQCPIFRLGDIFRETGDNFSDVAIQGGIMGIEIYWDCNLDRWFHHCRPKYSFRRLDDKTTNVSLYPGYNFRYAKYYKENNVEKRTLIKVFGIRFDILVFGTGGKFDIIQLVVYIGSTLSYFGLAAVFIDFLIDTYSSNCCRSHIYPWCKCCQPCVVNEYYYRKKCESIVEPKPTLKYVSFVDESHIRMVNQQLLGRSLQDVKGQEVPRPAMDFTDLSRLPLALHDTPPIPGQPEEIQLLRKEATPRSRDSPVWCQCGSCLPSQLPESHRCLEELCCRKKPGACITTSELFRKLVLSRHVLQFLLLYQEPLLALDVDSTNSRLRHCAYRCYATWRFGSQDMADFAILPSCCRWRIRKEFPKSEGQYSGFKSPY
Type: cell-based
Method: Intracellular Calcium Flux (FLIPR) Assay
Stock solutions of compounds were prepared from powders as a 10 mM DMSO stock solution. These solutions were stored at RT during the two week period of these experiments to prevent freeze-thaw of the DMSO stocks. The DMSO stocks were added to the appropriate assay buffer at a concentration of 10 μM, and then diluted serially to the final concentrations that were tested. […] The aqueous solutions of compounds as well as ATP (Sigma A7699) and BzATP (Sigma B6396) were prepared fresh for each day of experiment.
1321N1 cells stably expressing the full length human P2X7 gene (1321N1-hP2X7) and HEK293 cells stably expressing the full length rat P2X7 gene (HEK293-rP2X7) were obtained from the Roche Cell Culture Facility. 1321N1-hP2X7 cells were grown in Dulbecco's Modified Eagle's Medium (DMEM) high glucose supplemented with 10% FBS and 250 μg/mL G418. HEK293-rP2X7 cells were grown in DMEM/F-12 supplemented with 10% FBS, 1 mM CaCl2, 2 mM MgCl2, 2 mM L-Glutamine and 500 μg/ml G418. Cells were split such that they never became>70% confluent.
On the day prior to the experiment, 1321N1-hP2X7 or HEK293-rP2X7 cells were released into suspension with calcium-free PBS+Versene and washed by centrifugation with calcium-free PBS to remove the Versene. Cells were resuspended in growth medium at a density of 2.5×10^5 cells/mL and seeded into black walled, clear bottom 96 well plates (50,000 cells/well) approximately 18 hr prior to intracellular calcium flux experiments.
On the day of the experiment, plates were washed with FLIPR buffer (calcium- and magnesium-free Hank's Balanced Salt Solution (HBSS) supplemented with 10 mM Hepes, 2.5 mM probenecid and 2 mM calcium chloride) using a BIO-TEK 96 channel plate washer and incubated with […] fluo-3 dye at 37° C. for one hr. The dye was then removed by plate washing and the cells were allowed to equilibrate for 20 min at room temperature with antagonist or vehicle (FLIPR buffer). Agonist (100 μM BzATP final concentration for hP2X7; 5 μM BzATP final concentration or rP2X7) was added online with the FLIPR and fluorescence measurements made at 1 sec intervals for 60 sec followed by 3 sec intervals for a further 4 min (5 min total). A final addition of 5 μM ionomycin was made and the maximal BzATP-evoked fluorescence normalized to the maximal ionomycin-evoked fluorescence.
For Cc1cc2c(cc1NC(=O)C1=CNC(=O)C[C@H]1c1ccc(F)cc1)N(CCO)C(=O)CO2 [Compound 39, (S)-4-(4-Fluoro-phenyl)-6-oxo-1,4,5,6-tetrahydro-pyridine-3-carboxylic acid [4-(2-hydroxy-ethyl)-7-methyl-3-oxo-3,4-dihydro-2H-benzo[1,4]oxazin-6-yl]-amide], the pKi was 5.48.
With CCc1cc2c(cc1NC(=O)C1=CNC(=O)C[C@H]1c1ccc(F)cc1)N(CCO)C(=O)CO2 [Compound 40, (S)-4-(4-Fluoro-phenyl)-6-oxo-1,4,5,6-tetrahydro-pyridine-3-carboxylic acid [7-ethyl-4-(2-hydroxy-ethyl)-3-oxo-3,4-dihydro-2H-benzo[1,4]oxazin-6-yl]-amide] the pKi was 6.485.
Work on O=C1C[C@@H](c2ccc(F)cc2)C(C(=O)Nc2cc3c(cc2Br)CCC(=O)N3)=CN1 [Compound 41, (S)-4-(4-Fluoro-phenyl)-6-oxo-1,4,5,6-tetrahydro-pyridine-3-carboxylic acid (6-bromo-2-oxo-1,2,3,4-tetrahydro-quinolin-7-yl)-amide] yielded a pKi of 5.145.
Compound CCc1cc2cnn(C)c2cc1NC(=O)C1=CNC(=O)C[C@H]1c1ccc(F)cc1 [Compound 42, (S)-4-(4-Fluoro-phenyl)-6-oxo-1,4,5,6-tetrahydro-pyridine-3-carboxylic acid (5-ethyl-1-methyl-1H-indazol-6-yl)-amide] has a pKi of 7.74.
Compound Cc1cc2c(cc1NC(=O)C1=CNC(=O)C[C@H]1c1ccc(F)cc1)CCC(=O)N2C [Compound 43, (S)-4-(4-Fluoro-phenyl)-6-oxo-1,4,5,6-tetrahydro-pyridine-3-carboxylic acid (1,7-dimethyl-2-oxo-1,2,3,4-tetrahydro-quinolin-6-yl)-amide] has a pKi of 7.505.
Compound CCc1cc2cnn(C)c2cc1NC(=O)C1=CNC(=O)C[C@H]1c1cccc(F)c1 [Compound 44, (S)-4-(3-Fluoro-phenyl)-6-oxo-1,4,5,6-tetrahydro-pyridine-3-carboxylic acid (5-ethyl-1-methyl-1H-indazol-6-yl)-amide] has a pKi of 7.825.
CCc1cc2cnn(CCO)c2cc1NC(=O)C1=CNC(=O)C[C@H]1c1cccc(F)c1 [Compound 45, (S)-4-(3-Fluoro-phenyl)-6-oxo-1,4,5,6-tetrahydro-pyridine-3-carboxylic acid [5-ethyl-1-(2-hydroxy-ethyl)-1H-indazol-6-yl]-amide] showed a pKi of 7.7.
With CCc1c(NC(=O)C2=CNC(=O)C[C@H]2c2cccc(F)c2)ccc2nc(C)ccc12 [Compound 46, (S)-4-(3-Fluoro-phenyl)-6-oxo-1,4,5,6-tetrahydro-pyridine-3-carboxylic acid (5-ethyl-2-methyl-quinolin-6-yl)-amide] the pKi was 7.635.
For O=C1C[C@@H](c2ccc(F)cc2)C(C(=O)Nc2cccc3ccncc23)=CN1 [Compound 47, (S)-4-(4-Fluoro-phenyl)-6-oxo-1,4,5,6-tetrahydro-pyridine-3-carboxylic acid isoquinolin-8-ylamide], the pKi was 5.29.
Cc1cc2c(NC(=O)C3=CNC(=O)C[C@H]3c3ccc(F)cc3)cccc2nn1 [Compound 48, (S)-4-(4-Fluoro-phenyl)-6-oxo-1,4,5,6-tetrahydro-pyridine-3-carboxylic acid (3-methyl-cinnolin-5-yl)-amide] showed a pKi of 5.425.
Work on Cc1ccc2c(NC(=O)C3=CNC(=O)C[C@H]3c3ccc(F)cc3)c(C)ccc2n1 [Compound 49, (S)-4-(4-Fluoro-phenyl)-6-oxo-1,4,5,6-tetrahydro-pyridine-3-carboxylic acid (2,6-dimethyl-quinolin-5-yl)-amide] yielded a pKi of 7.8567.
Work on CN1C=C(C(=O)Nc2cccc3c(=O)n(CCO)ccc23)[C@H](c2ccc(F)cc2)CC1=O [Compound 50, (S)-4-(4-Fluoro-phenyl)-1-methyl-6-oxo-1,4,5,6-tetrahydro-pyridine-3-carboxylic acid [2-(2-hydroxy-ethyl)-1-oxo-1,2-dihydro-isoquinolin-5-yl]-amide] yielded a pKi of 7.04.
For Cc1ccc2c(=O)n(C)ccc2c1NC(=O)C1=CNC(=O)C[C@H]1c1ccc(F)cc1 [Compound 51, (S)-4-(4-Fluoro-phenyl)-6-oxo-1,4,5,6-tetrahydro-pyridine-3-carboxylic acid (2,6-dimethyl-1-oxo-1,2-dihydro-isoquinolin-5-yl)-amide], the pKi was 7.4375.
Work on Cc1ccc2c(=O)n(C)ccc2c1NC(=O)C1=CN(C)C(=O)C[C@H]1c1ccc(F)cc1 [Compound 52, (S)-4-(4-Fluoro-phenyl)-1-methyl-6-oxo-1,4,5,6-tetrahydro-pyridine-3-carboxylic acid (2,6-dimethyl-1-oxo-1,2-dihydro-isoquinolin-5-yl)-amide] yielded a pKi of 7.45.
Cc1ccc2c(C)nccc2c1NC(=O)C1=CN(C)C(=O)C[C@H]1c1ccc(F)cc1 [Compound 53, (S)-4-(4-Fluoro-phenyl)-1-methyl-6-oxo-1,4,5,6-tetrahydro-pyridine-3-carboxylic acid (1,6-dimethyl-isoquinolin-5-yl)-amide] was tested, and the pKi was 6.045.
Cn1ccc2c(NC(=O)C3=CNC(=O)C[C@H]3c3ccc(F)cc3)cccc2c1=O [Compound 58, (S)-4-(4-Fluoro-phenyl)-6-oxo-1,4,5,6-tetrahydro-pyridine-3-carboxylic acid (2-methyl-1-oxo-1,2-dihydro-isoquinolin-5-yl)-amide] gave a pKi of 7.56.
